According to PubChem BioAssay AID1845219 (Molecular Pharmacology Branch, DTP, NCI, 2023):

Tested on: SYO-1 tumor spheroids, viability % test/control
Assay: Anticancer human tumor SYO-1 cell line growth inhibition;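 note: spheroids exposed to agents for 7 days before viability read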;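 for viability, T/C: 100% = DMSO vehicle control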
Settings: spheroids with HUVEC and MSC; for IC50: curve of first compound; for viability, T/C: stronger effect = lower value
How it was run: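 Complex spheroids of malignant cells with endothelial cells and mesenchymal stem cells; agents alone or combined, from near clinical Cmax (or 10 microM if unknown) down in half-log steps, 0.25% DMSO final.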

[1] = second compound 30 pM, first compound 0.0316 µM
[2] = second compound 30 pM, first compound 0.1 µM
[3] = second compound 30 pM, first compound 0.316 µM
[4] = second compound 30 pM, first compound 1 µM
[5] = second compound 30 pM, first compound 3.16 µM
[6] = second compound 30 pM, first compound 10 µM
[7] = second compound 94.9 pM, first compound 0.0316 µM
[8] = second compound 94.9 pM, first compound 0.1 µM
[9] = second compound 94.9 pM, first compound 0.316 µM
[10] = second compound 94.9 pM, first compound 1 µM
[11] = second compound 94.9 pM, first compound 3.16 µM
[12] = second compound 94.9 pM, first compound 10 µM
[13] = second compound 0.0003 µM, first compound 0.0316 µM
[14] = second compound 0.0003 µM, first compound 0.1 µM
[15] = second compound 0.0003 µM, first compound 0.316 µM
[16] = second compound 0.0003 µM, first compound 1 µM
[17] = second compound 0.0003 µM, first compound 3.16 µM
[18] = second compound 0.0003 µM, first compound 10 µM
[19] = second compound 0.000949 µM, first compound 0.0316 µM
[20] = second compound 0.000949 µM, first compound 0.1 µM
[21] = second compound 0.000949 µM, first compound 0.316 µM
[22] = second compound 0.000949 µM, first compound 1 µM
[23] = second compound 0.000949 µM, first compound 3.16 µM
[24] = second compound 0.000949 µM, first compound 10 µM
[25] = second compound 0.003 µM, first compound 0.0316 µM
[26] = second compound 0.003 µM, first compound 0.1 µM
[27] = second compound 0.003 µM, first compound 0.316 µM
[28] = second compound 0.003 µM, first compound 1 µM
[29] = second compound 0.003 µM, first compound 3.16 µM
[30] = second compound 0.003 µM, first compound 10 µM

Row | SMILES | IC50 (second compound 30 pM) [nM] | IC50 (second compound 94.9 pM) [nM] | IC50 (second compound 0.0003 µM) [nM] | IC50 (second compound 0.000949 µM) [nM] | IC50 (second compound 0.003 µM) [nM] | viability, T/C [1] [%] | viability, T/C [2] [%] | viability, T/C [3] [%] | viability, T/C [4] [%] | viability, T/C [5] [%] | viability, T/C [6] [%] | viability, T/C [7] [%] | viability, T/C [8] [%] | viability, T/C [9] [%] | viability, T/C [10] [%] | viability, T/C [11] [%] | viability, T/C [12] [%] | viability, T/C [13] [%] | viability, T/C [14] [%] | viability, T/C [15] [%] | further results
1 | CC(C)n1c(=O)n(C)c2cnc3cc(F)c(-c4ccc(OCCCN5CCCCC5)nc4)cc3c21 + COc1cc2c(cc1O)CCNC21CSC2c3c(OC(C)=O)c(C)c4c(c3C(COC1=O)N1C(O)C3Cc5cc(C)c(OC)c(O)c5C(C21)N3C)OCO4 | 7380 | < 31.6 | < 31.6 | < 31.6 | < 31.6 | 99.7 | 97.7 | 98 | 99.4 | 89.7 | 35.5 | 37.6 | 33.4 | 43.2 | 52.4 | 50 | 21.6 | 2.89 | 2.78 | 3.15 | viability, T/C [16]: 3.23%; viability, T/C [17]: 2.46%; viability, T/C [18]: 0.62%; viability, T/C [19]: 0.98%; viability, T/C [20]: 1.01%; viability, T/C [21]: 0.98%; viability, T/C [22]: 1.04%; viability, T/C [23]: 0.96%; viability, T/C [24]: 0.32%; viability, T/C [25]: 0.12%; viability, T/C [26]: 0.12%; viability, T/C [27]: 0.12%; viability, T/C [28]: 0.13%; viability, T/C [29]: 0.13%; viability, T/C [30]: 0.22%
2 | CC1COCCN1c1cc(-c2ccnn2C)c2ccnc(-c3ccn[nH]3)c2n1 (stereo not given) + COc1cc2c(cc1O)CCNC21CSC2c3c(OC(C)=O)c(C)c4c(c3C(COC1=O)N1C(O)C3Cc5cc(C)c(OC)c(O)c5C(C21)N3C)OCO4 | < 31.6 | < 31.6 | < 31.6 | < 31.6 | < 31.6 | 3.62 | 1.79 | 1.29 | 0.95 | 0.42 | 0.48 | 1.83 | 1.41 | 1.17 | 0.6 | 0.3 | 0.41 | 1.24 | 1.22 | 0.9 | viability, T/C [16]: 0.63%; viability, T/C [17]: 0.26%; viability, T/C [18]: 0.29%; viability, T/C [19]: 1.03%; viability, T/C [20]: 0.61%; viability, T/C [21]: 0.54%; viability, T/C [22]: 0.31%; viability, T/C [23]: 0.2%; viability, T/C [24]: 0.19%; viability, T/C [25]: 0.11%; viability, T/C [26]: 0.11%; viability, T/C [27]: 0.09%; viability, T/C [28]: 0.09%; viability, T/C [29]: 0.1%; viability, T/C [30]: 0.16%
3 | COc1cc(C)[nH]c(=O)c1CN1CCc2c(Cl)cc(C(OC)C3COC3)c(Cl)c2C1=O (stereo not given) + COc1cc2c(cc1O)CCNC21CSC2c3c(OC(C)=O)c(C)c4c(c3C(COC1=O)N1C(O)C3Cc5cc(C)c(OC)c(O)c5C(C21)N3C)OCO4 | 1490 | 198 | < 31.6 | < 31.6 | < 31.6 | 104 | 104 | 79.3 | 55.3 | 42.5 | 40.5 | 94 | 65.8 | 39.9 | 20.9 | 16.5 | 11.5 | 6.74 | 4 | 3.76 | viability, T/C [16]: 3.14%; viability, T/C [17]: 2.73%; viability, T/C [18]: 2.74%; viability, T/C [19]: 0.89%; viability, T/C [20]: 0.96%; viability, T/C [21]: 0.72%; viability, T/C [22]: 0.67%; viability, T/C [23]: 0.86%; viability, T/C [24]: 0.76%; viability, T/C [25]: 0.11%; viability, T/C [26]: 0.09%; viability, T/C [27]: 0.1%; viability, T/C [28]: 0.11%; viability, T/C [29]: 0.11%; viability, T/C [30]: 0.17%
4 | COc1ccc([C@@H](O)c2cc(-c3ncnc4cc(N5CCOCC5)ccc34)c(F)cc2Cl)nn1 + COc1cc2c(cc1O)CCNC21CSC2c3c(OC(C)=O)c(C)c4c(c3C(COC1=O)N1C(O)C3Cc5cc(C)c(OC)c(O)c5C(C21)N3C)OCO4 | 3170 | 772 | < 31.6 | < 31.6 | < 31.6 | 104 | 103 | 105 | 102 | 50.1 | 2.83 | 97.7 | 103 | 94.9 | 37 | 5.43 | 7.51 | 12.2 | 9.57 | 3.06 | viability, T/C [16]: 1.34%; viability, T/C [17]: 0.26%; viability, T/C [18]: 0.17%; viability, T/C [19]: 0.88%; viability, T/C [20]: 0.86%; viability, T/C [21]: 0.54%; viability, T/C [22]: 0.23%; viability, T/C [23]: 0.03%; viability, T/C [24]: 0.15%; viability, T/C [25]: 0.12%; viability, T/C [26]: 0.12%; viability, T/C [27]: 0.1%; viability, T/C [28]: 0.24%; viability, T/C [29]: 0.38%; viability, T/C [30]: 1.5%
5 | Cc1cc(C)c(CNC(=O)c2cc(-c3ccc(CN4CCOCC4)cc3)cc3c2cnn3C2CCCC2)c(=O)[nH]1 + COc1cc2c(cc1O)CCNC21CSC2c3c(OC(C)=O)c(C)c4c(c3C(COC1=O)N1C(O)C3Cc5cc(C)c(OC)c(O)c5C(C21)N3C)OCO4 | > 10000 | 7980 | < 31.6 | < 31.6 | < 31.6 | 103 | 97.2 | 100 | 103 | 107 | 96.3 | 102 | 96.3 | 99.2 | 99.8 | 84.5 | 41.1 | 18.4 | 14.3 | 13.3 | viability, T/C [16]: 11%; viability, T/C [17]: 12.2%; viability, T/C [18]: 3.97%; viability, T/C [19]: 0.91%; viability, T/C [20]: 0.86%; viability, T/C [21]: 1.11%; viability, T/C [22]: 0.97%; viability, T/C [23]: 0.9%; viability, T/C [24]: 1.08%; viability, T/C [25]: 0.13%; viability, T/C [26]: 0.13%; viability, T/C [27]: 0.13%; viability, T/C [28]: 0.15%; viability, T/C [29]: 0.14%; viability, T/C [30]: 0.2%
6 | [2H]c1nc(C)nc([2H])c1-c1cc(NC[C@@H](C)c2cccc3c(C(=O)NC)ccnc23)ncn1 + COc1cc2c(cc1O)CCNC21CSC2c3c(OC(C)=O)c(C)c4c(c3C(COC1=O)N1C(O)C3Cc5cc(C)c(OC)c(O)c5C(C21)N3C)OCO4 | > 10000 | > 10000 | < 31.6 | < 31.6 | < 31.6 | 95.9 | 101 | 102 | 102 | 104 | 102 | 97.7 | 97.1 | 99.6 | 98.8 | 100 | 95.7 | 10.9 | 11.6 | 12.2 | viability, T/C [16]: 11.5%; viability, T/C [17]: 13.1%; viability, T/C [18]: 5.66%; viability, T/C [19]: 0.9%; viability, T/C [20]: 0.98%; viability, T/C [21]: 0.92%; viability, T/C [22]: 0.87%; viability, T/C [23]: 0.92%; viability, T/C [24]: 0.94%; viability, T/C [25]: 0.96%; viability, T/C [26]: 1.13%; viability, T/C [27]: 4.62%; viability, T/C [28]: 0.12%; viability, T/C [29]: 0.12%; viability, T/C [30]: 0.2%
